Test [1] addresses T1, human CRTh2 (Homo sapiens, UniProt Q9Y5Y4).
T1 construct: expressed in transfected cells; host or cells: CHO.K1 (Chinese Hamster Ovary) cells expressing human CRTh2; membrane preparation
T1 sequence (Q9Y5Y4 1-395): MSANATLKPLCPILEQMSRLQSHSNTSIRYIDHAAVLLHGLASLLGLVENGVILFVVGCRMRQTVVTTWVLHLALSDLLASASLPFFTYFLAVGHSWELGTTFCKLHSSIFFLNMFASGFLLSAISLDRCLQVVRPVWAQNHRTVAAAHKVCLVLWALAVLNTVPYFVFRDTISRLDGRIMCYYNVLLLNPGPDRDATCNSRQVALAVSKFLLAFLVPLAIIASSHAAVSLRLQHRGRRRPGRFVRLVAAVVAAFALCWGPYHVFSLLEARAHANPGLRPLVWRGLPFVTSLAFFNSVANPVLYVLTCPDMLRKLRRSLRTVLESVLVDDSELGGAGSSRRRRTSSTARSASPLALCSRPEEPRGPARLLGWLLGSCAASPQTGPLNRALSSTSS
The experiment in a line: CRTh2 [3H]-PGD2 binding assay (filtration protocol; called SPA binding assay). Particulars: competition with [3H]-PGD2 (2.5 nM), CHO.K1-CRTh2 membranes. As for the experimental part: Filtration Binding Assay Protocol
The binding of CRTh2 modulators is determined using membranes prepared from human CRTh2-expressing Chinese Hamster Ovary cells (CHO.K1-CRTh2). To produce cell membranes CHO.K1-CRTh2 cells cultured in roller bottles are harvested using cell dissociation buffer (Invitrogen). The cells are pelleted by centrifugation (167 g, 5 min). The cell pellet is incubated in hypotonic buffer (15 mM Tris-OH, 2 mM MgCl2, 0.3 mM EDTA, 1 mM EGTA, 1× Complete™ tablet) at 4° C. for 30 min. At 4° C. cells are homogenized using a Polytron® (IKA Ultra Turrax T25) for 5 bursts of 1 second. The homogenate is centrifuged (Beckman Optima™ TL Ultracentrifuge, 48000 g, 30 min at 4° C.). The supernatant is discarded and the membrane pellet resuspended in homogenisation buffer (75 mM Tris-OH, 12.5 mM MgCl2, 0.3 mM EDTA, 1 mM EGTA, 250 mM Sucrose, 1× Complete™ tablet. Membrane preparations are aliquoted and stored at […]. The protein content is estimated using Bradford Protein Assay Dye (Bio Rad).
The binding of [^3H]-PGD2 (157 Ci/mmol) to CHO.K1-CRTh2 membranes is determined in the absence (total binding) and presence (non-specific binding) of unlabelled PGD2 (1 μM). Subtraction of the cpm (counts per minute) of [^3H]-PGD2 binding in presence of excess unlabelled PGD2 from that observed in the absence of excess unlabelled PGD2 is defined as specific binding. Active CRTh2 modulators are able to compete with [^3H]-PGD2 for binding to the CRTh2 receptor and are identified in a decrease in the number of cpm bound. […]
The plates are incubated at room temperature on a shaker for 1 hour, and then harvested (Tomtec Harvester 9600) onto GF/C filter plates using wash buffer (10 mM HEPES-KOH, pH 7.4). […] Plates are then counted using a Packard Top Count instrument, Plates are then read on the Packard Topcount with the 3H Scintillation program (1 min per well).
Ki (dissocation constant for the inhibition) values for the CRTh2 modulators are reported. Ki values are determined using Sigma Plot™ software, using the Cheng-Prussoff equation. […]

The target of test [2] is T2, CRTh2 receptor in CHO.K1-CRTh2 cells (Homo sapiens, UniProt Q9Y5Y4).
T2 construct: expressed in transfected cells; host or cells: CHO.K1-CRTh2 cells (whole cells)
T2 sequence (Q9Y5Y4 1-395): T1 sequence (Q9Y5Y4 1-395)
The experiment in a line: CRTH2 cAMP functional assay. It counts as cell-based. The note with it: inhibition of PGD2-mediated attenuation of forskolin-induced cAMP accumulation in CHO.K1-CRTh2 cells. As for the experimental part: Ki (dissocation constant for the inhibition) values for the CRTh2 modulators are reported. Ki values are determined using Sigma Plot™ software, using the Cheng-Prussoff equation. Ki=IC50/1+[S]/Kd where S is the concentration of radioligand and Kd is the dissociation constant. CRTH2 cAMP Functional Assay Protocol
This assay is conducted in CHO.K1-CRTh2 cells. cAMP is generated in the cell by stimulating cells with 5 μM forskolin, an adenylate cyclase activator. PGD2 is added to activate the CRTh2 receptor which results in the attenuation of the forskolin-induced cAMP accumulation. Potential CRTh2 antagonists are tested for their ability to inhibit the PGD2-mediated attenuation of the forskolin-induced cAMP accumulation in CHO.K1-CRTh2 cells.
For each concentration value on the dose-response curve, test compounds are prepared in assay stimulation buffer (HBSS, 5 mM HEPES, 10 μM IBMX±0.1% human serum albumin) containing DMSO (3% vol/vol) and 5 μL/well is added to an assay plate (384 well white optiplate).
CHO.K1-CRTh2 cultured in tissue culture flasks are washed with PBS and harvested with dissociation buffer. Cells are washed with PBS and resuspended in stimulation buffer to a concentration of 0.4×10^6/mL and added to the assay plate (10 μL/well).
The assay plate is incubated at room temperature on a shaker for 15 minutes.
A mix of agonist (10 nM Prostaglandin D2) and 5 μM forskolin is prepared in assay stimulation buffer and added to the assay plate (5 μL/well).
In addition, a cAMP standard is serially diluted in assay stimulation buffer and added to separate empty wells on the assay plate (20 μL/well). The cAMP standard allows for the quantification of cAMP generated in CHO.K1-CRTH2 cells.
The assay plate is incubated at room temperature on a shaker for 60 minutes. […]
The assay plate is sealed with Topseal-S™ and incubated in the dark at room temperature on a shaker for 45 minutes. The plate is then counted using a Packard Fusion™ instrument. […]
Background: cAMP levels reflect the balance of adenylyl cyclase and phosphodiesterase activity.

The structures appear in SMILES notation.

With `Cc1c(CC(=O)O)c2cc(F)ccc2n1Cc1ccc(S(C)(=O)=O)cc1C(F)(F)F` [Example 2, [5-fluoro-(4-methanesulfonyl-2-trifluoromethyl-benzyl)-2-methyl-1H-indol-3-yl]-acetic acid], the Ki in test [1] was found to be 8 nM. Also, the IC50 in test [2] was determined as 73 nM.

`Cc1c(CC(=O)O)c2cc(F)ccc2n1Cc1ccc(S(=O)(=O)N(C)C2CCCCC2)cc1` [Example 4, {1-[4-(Cyclohexyl-methyl-sulfamoyl)-benzyl]-5-fluoro-2-methyl-1H-indol-3-yl}-acetic acid]: the Ki in test [1] stood at 52 nM. Moreover, in test [2], the IC50 is 33 nM.

The compound `Cc1c(CC(=O)O)c2cc(F)ccc2n1Cc1ccc(S(=O)(=O)N2CCCC2)cc1` [Example 5, {5-Fluoro-2-methyl-1-[4-(pyrrolidine-1-sulfonyl)-benzyl]-1H-indol-3-yl}-acetic acid] gave a Ki in test [1] of 36 nM. The compound further had an IC50 in test [2] of 99 nM.

Usually Ki stands for the dissociation constant of the complex between target and ligand, obtained from inhibition or displacement. Read a high Ki as weaker binding. One may read the IC50 as the concentration at which inhibition is half-maximal.

The values are drawn from patent US7888383B2, “Organic compounds” (Novartis AG, priority 2005, dated 2011).
